Assay results from ChEMBL document CHEMBL1148801, “Structural modification of the P2' position of 2,7-dialkyl-substituted 5(S)-amino-4(S)-hydroxy-8-phenyl-octanecarboxamides: the discovery of aliskiren, a potent nonpeptide human renin inhibitor active after once daily dosing in marmosets” (J Med Chem, 2007).

Tests used:
[1] = molecular target: T1, Renin (Callithrix jacchus, UniProt Q9TSZ1); assay type: cell-free, Plasma
T1 sequence (Q9TSZ1 whole entry): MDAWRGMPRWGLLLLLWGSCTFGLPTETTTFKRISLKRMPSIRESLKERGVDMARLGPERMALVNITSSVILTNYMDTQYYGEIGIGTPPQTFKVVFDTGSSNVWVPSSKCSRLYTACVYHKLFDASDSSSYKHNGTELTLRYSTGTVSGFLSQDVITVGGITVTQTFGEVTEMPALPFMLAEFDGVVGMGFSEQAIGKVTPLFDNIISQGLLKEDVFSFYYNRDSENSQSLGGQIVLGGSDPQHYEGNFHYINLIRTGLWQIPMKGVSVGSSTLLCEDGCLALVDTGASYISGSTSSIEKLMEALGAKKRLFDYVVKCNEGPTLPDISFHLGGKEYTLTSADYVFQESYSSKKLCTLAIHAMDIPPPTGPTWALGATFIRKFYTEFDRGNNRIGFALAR

[2] = molecular target: T2, Renin (Homo sapiens, UniProt P00797)
T2 sequence (P00797 whole entry): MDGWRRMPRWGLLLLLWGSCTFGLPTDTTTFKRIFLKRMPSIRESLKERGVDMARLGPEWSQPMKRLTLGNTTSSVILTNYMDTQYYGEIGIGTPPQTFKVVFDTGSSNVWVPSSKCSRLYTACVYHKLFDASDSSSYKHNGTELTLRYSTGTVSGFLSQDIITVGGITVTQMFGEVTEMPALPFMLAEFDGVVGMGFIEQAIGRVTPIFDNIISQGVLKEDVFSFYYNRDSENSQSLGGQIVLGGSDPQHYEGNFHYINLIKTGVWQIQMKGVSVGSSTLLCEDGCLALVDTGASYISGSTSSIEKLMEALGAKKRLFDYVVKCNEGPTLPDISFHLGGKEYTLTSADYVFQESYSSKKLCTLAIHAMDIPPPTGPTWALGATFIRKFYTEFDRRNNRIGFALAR

[3] = molecular target: T2, Renin; remark: listed apart in the source
[4] = in vivo; details: marmoset, po, 3 mg/kg
[5] = molecular target: Pepsin A (Homo sapiens, UniProt P0DJD9)
[6] = molecular target: Cathepsin D (Homo sapiens, UniProt P07339)
[7] = molecular target: T3, Cathepsin E (Homo sapiens, UniProt P14091)
T3 sequence (P14091 whole entry): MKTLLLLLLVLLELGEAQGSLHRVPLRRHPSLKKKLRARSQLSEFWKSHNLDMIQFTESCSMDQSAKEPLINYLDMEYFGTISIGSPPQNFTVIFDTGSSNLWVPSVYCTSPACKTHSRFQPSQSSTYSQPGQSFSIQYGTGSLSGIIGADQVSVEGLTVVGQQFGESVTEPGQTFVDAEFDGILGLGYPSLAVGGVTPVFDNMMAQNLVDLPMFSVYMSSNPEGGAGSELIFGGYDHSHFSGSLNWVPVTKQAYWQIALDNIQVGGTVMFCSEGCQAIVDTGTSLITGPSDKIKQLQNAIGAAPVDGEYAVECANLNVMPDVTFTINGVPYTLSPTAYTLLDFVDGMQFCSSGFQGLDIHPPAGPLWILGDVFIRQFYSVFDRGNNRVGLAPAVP

[8] = molecular target: Beta-secretase 1 (Homo sapiens, UniProt P56817)
[9] = in vivo; details: dog, po
[10] = in vivo; details: rat, po
[11] = in vivo; details: marmoset
[12] = physchem; details: octanol/water, pH 7.4
[13] = physchem
[14] = physchem; details: water
[15] = physchem; details: octanol/water, pH 6.8
[16] = physchem; remark: listed apart in the source
[17] = physchem; details: buffer, pH 7.4
[18] = organism: Callithrix jacchus; assay type: functional, Plasma

Cathepsin D, sequence (P07339 65-162 limits assumed): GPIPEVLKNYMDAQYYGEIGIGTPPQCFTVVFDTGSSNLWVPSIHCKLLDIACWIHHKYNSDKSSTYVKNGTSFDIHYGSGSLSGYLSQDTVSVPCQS
Cathepsin D, sequence (P07339 169-412 limits assumed): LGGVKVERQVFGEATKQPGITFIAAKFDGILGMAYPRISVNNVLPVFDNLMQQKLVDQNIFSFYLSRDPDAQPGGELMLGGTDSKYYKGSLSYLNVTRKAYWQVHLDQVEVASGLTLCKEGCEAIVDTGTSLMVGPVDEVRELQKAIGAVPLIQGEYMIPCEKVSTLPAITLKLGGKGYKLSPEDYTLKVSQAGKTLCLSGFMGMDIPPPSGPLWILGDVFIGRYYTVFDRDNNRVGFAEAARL
Pepsin A, sequence (P0DJD9 whole entry): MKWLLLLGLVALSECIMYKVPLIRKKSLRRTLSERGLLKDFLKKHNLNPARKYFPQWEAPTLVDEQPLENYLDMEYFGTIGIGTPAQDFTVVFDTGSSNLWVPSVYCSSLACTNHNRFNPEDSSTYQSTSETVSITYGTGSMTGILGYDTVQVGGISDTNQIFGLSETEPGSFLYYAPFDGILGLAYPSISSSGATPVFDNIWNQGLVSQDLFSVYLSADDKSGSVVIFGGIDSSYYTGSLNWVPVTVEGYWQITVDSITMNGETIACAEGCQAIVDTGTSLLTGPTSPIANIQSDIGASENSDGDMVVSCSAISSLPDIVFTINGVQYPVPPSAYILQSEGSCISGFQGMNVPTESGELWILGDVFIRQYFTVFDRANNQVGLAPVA
Beta-secretase 1, sequence (P56817 whole entry): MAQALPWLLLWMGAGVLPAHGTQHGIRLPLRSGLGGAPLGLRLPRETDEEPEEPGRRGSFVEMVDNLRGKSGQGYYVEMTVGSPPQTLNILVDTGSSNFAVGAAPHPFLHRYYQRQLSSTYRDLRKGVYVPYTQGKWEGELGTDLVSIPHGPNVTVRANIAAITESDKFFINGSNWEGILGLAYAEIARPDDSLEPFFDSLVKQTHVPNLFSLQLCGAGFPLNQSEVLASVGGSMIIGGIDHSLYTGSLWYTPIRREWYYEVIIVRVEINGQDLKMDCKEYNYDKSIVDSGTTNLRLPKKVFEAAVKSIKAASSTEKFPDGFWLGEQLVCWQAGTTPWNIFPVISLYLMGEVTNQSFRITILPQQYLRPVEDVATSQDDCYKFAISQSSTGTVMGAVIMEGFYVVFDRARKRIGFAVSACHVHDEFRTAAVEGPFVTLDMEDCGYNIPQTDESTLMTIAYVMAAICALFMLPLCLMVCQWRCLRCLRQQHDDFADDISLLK

| SMILES | IC50 [1] | IC50 [2] | IC50 [3] | further results |
| --- | --- | --- | --- | --- |
| COCCCOc1cc(C[C@@H](C[C@H](N)[C@@H](O)C[C@H](C(=O)NC[C@@H]2CCC(=O)N2)C(C)C)C(C)C)ccc1OC.Cl | 3 nM | 0.6 nM | 0.9 nM | bioavailability [4]: 22% |
| COCCCOc1cc(C[C@@H](C[C@H](N)[C@@H](O)C[C@H](C(=O)N[C@H](C)CC(N)=O)C(C)C)C(C)C)ccc1OC | 28 nM | 6 nM | 57 nM | – |
| COCCCOc1cc(C[C@@H](C[C@H](N)[C@@H](O)C[C@H](C(=O)NC(C)(C)C(N)=O)C(C)C)C(C)C)ccc1OC | 200 nM | 13 nM | 100 nM | – |
| COCCCOc1cc(C[C@@H](C[C@H](N)[C@@H](O)C[C@H](C(=O)NCC(C)(C)C(N)=O)C(C)C)C(C)C)ccc1OC.Cl | – | – | – | IC50 [5]: > 10000 nM; IC50 [6]: > 10000 nM; IC50 [7]: > 10000 nM; IC50 [8]: > 10000 nM; bioavailability [4]: 16%; bioavailability [9]: 32%; bioavailability [10]: 2.4%; half-life [11]: 8.7 h |
| COCCCOc1cc(C[C@@H](C[C@H](N)[C@@H](O)C[C@H](C(=O)NCCCN2CCOCC2)C(C)C)C(C)C)ccc1OC | 3 nM | 3 nM | 3 nM | – |
| COCCCCc1cc(C[C@@H](C[C@H](N)[C@@H](O)C[C@H](C(=O)NCCN2CCOCC2)C(C)C)C(C)C)ccc1OC.Cl | 1 nM | 2 nM | 0.9 nM | bioavailability [4]: 30%; logD [12]: 2.85; pKa [13]: 6.01 |
| COCCCOc1cc(C[C@@H](C[C@H](N)[C@@H](O)C[C@H](C(=O)NC[C@H]2CCC(=O)N2)C(C)C)C(C)C)ccc1OC.Cl | 2 nM | 2 nM | 1 nM | logD [12]: 2.06; solubility [14]: > 100 mg/mL; pKa [13]: 9.09 |
| COCCCOc1cc(C[C@@H](C[C@H](N)[C@@H](O)C[C@H](C(=O)NCCc2nn[nH]n2)C(C)C)C(C)C)ccc1OC | 2 nM | 2 nM | 2 nM | – |
| COCCCOc1cc(C[C@@H](C[C@H](N)[C@@H](O)C[C@H](C(=O)NCCN2CCOCC2)C(C)C)C(C)C)ccc1OC | 3 nM | 0.4 nM | 1 nM | – |
| COCCCOc1cc(C[C@@H](C[C@H](N)[C@@H](O)C[C@H](C(=O)N[C@@H](C)CC(N)=O)C(C)C)C(C)C)ccc1OC | 3 nM | 1 nM | 2 nM | – |
| COCCCOc1cc(C[C@@H](C[C@H](N)[C@@H](O)C[C@H](C(=O)NC(C)CN2CCOCC2)C(C)C)C(C)C)ccc1OC (stereo partly specified) | 9 nM | 3 nM | – | – |
| COCCCOc1cc(C[C@@H](C[C@H](N)[C@@H](O)C[C@H](C(=O)NCCC(=O)N(C)C)C(C)C)C(C)C)ccc1OC | – | – | – | logD [12]: 2.48; pKa [13]: 9.4 |
| COCCCOc1cc(C[C@@H](C[C@H](N)[C@@H](O)C[C@H](C(=O)NCC(C)(C)C(=O)O)C(C)C)C(C)C)ccc1OC | 13 nM | 3 nM | 13 nM | – |
| COCCCOc1cc(C[C@@H](C[C@H](N)[C@@H](O)C[C@H](C(=O)N[C@@H](CO)C(N)=O)C(C)C)C(C)C)ccc1OC | 6 nM | 2 nM | 3 nM | – |
| CC[C@H](NC(=O)[C@@H](C[C@H](O)[C@@H](N)C[C@H](Cc1ccc(OC)c(OCCCOC)c1)C(C)C)C(C)C)C(N)=O | 1 nM | 0.8 nM | – | – |
| COCCCOc1cc(C[C@@H](C[C@H](N)[C@@H](O)C[C@H](C(=O)NCC(C)(C)N2CCOCC2)C(C)C)C(C)C)ccc1OC | 18 nM | 0.6 nM | 2 nM | – |
| COCCCOc1cc(C[C@@H](C[C@H](N)[C@@H](O)C[C@H](C(=O)NCC(C)(C)C(N)=O)C(C)C)C(C)C)ccc1OC.COCCCOc1cc(C[C@@H](C[C@H](N)[C@@H](O)C[C@H](C(=O)NCC(C)(C)C(N)=O)C(C)C)C(C)C)ccc1OC.O=C(O)/C=C/C(=O)O [ALISKIREN FUMARATE] | – | – | – | logD [12]: 2.5; logD [15]: 0.1; solubility [16]: 0.44 mg/mL; pKa [13]: 9.2; solubility [17]: > 100 mg/mL |
| CNC(=O)C(C)(C)CNC(=O)[C@@H](C[C@H](O)[C@@H](N)C[C@H](Cc1ccc(OC)c(OCCCOC)c1)C(C)C)C(C)C.Cl | 2 nM | 0.4 nM | 0.7 nM | bioavailability [4]: 25% |
| COCCCOc1cc(C[C@@H](C[C@H](N)[C@@H](O)C[C@H](C(=O)NCCC(=O)N(C)C)C(C)C)C(C)C)ccc1OC.Cl | – | – | – | bioavailability [4]: 14% |
| COCCCCc1cc(C[C@@H](C[C@H](N)[C@@H](O)C[C@H](C(=O)NCC(C)(C)C(N)=O)C(C)C)C(C)C)ccc1OC.Cl | 4 nM | 1 nM | 3 nM | bioavailability [4]: 8%; logD [12]: 3.31; pKa [13]: 9.44 |
| COCCCOc1cc(C[C@@H](C[C@H](N)[C@@H](O)C[C@H](C(=O)NC(C)(C)CN2CCOCC2)C(C)C)C(C)C)ccc1OC | – | 16 nM | 27 nM | – |
| CCCCNC(=O)[C@@H](C[C@H](O)[C@@H](N)C[C@H](Cc1ccc(OC)c(OCCCOC)c1)C(C)C)C(C)C.Cl | – | – | – | Inhibition [18]: 79% |
